System: male db/db mice
Test: Hypoglycemic activity in db/db mice, oral administration once a day for 2 weeks
Type: in vivo
Conditions: Mus musculus, po, 336 h, dosage 30 mg/kg orally once a day for 2 weeks in 0.5% carboxymethyl cellulose, male db/db mice (7 to 8 weeks old), versus vehicle on last day
Description: The test compounds described in Examples (these compound were made into a free form from a salt form, a sodium salt or calcium salt, if necessary) were dissolved or suspended in 0.5% carboxymethyl cellulose solution. Mice were forced to orally administer the test compound as to administer the total amount of 30 mg/kg or 100 mg/kg to male db/db mice (7 to 8 weeks old) once a day for 2 weeks. On last day, to the blood just taken from tail vein was added perchloric acid to remove proteins and then the blood sugar was measure by glucose CII Test Waco (Wako Pure Chemical Ind.). Hypoglycemic activity was calculated as following formula: [formula] • A: Blood sugar level of Vehicle (on last day) • B: Blood sugar level of test compound-administered group (on last day)

SMILES	inhibition in vivo at 30 mg/kg [%]
COc1cccc(C(=O)c2cccn2C/C=C/c2cccc(OC(C)C(=O)O)c2)c1 (stereo not drawn) [Example 63]	19
CCc1ccc(C(=O)c2cccn2C/C=C/c2cccc(O[C@@H](C)C(=O)O)c2)cc1 [Example 91]	55
C[C@H](Oc1cccc(/C=C/Cn2cccc2C(=O)c2ccc3c(c2)OCO3)c1)C(=O)O [Example 92]	46
Cc1ccc(C(=O)c2cccn2C/C=C/c2cccc([C@@H](C)C(=O)O)c2)cc1 [Example 110]	17
Cc1ccc(C(=O)c2cccn2C/C=C/c2cccc([C@H](C)C(=O)O)c2)cc1 [Example 111]	61
Cc1ccc(C(=O)c2cccn2C/C=C/c2cccc(SC(C)C(=O)O)c2)cc1 (stereo not drawn) [Example 126]	56
CC(Oc1cccc(/C=C/Cn2cccc2C(=O)c2ccc(C(F)(F)F)cc2)c1)C(=O)O (stereo not drawn) [Example 143]	21
CC(Oc1cccc(/C=C/Cn2cccc2C(=O)c2cccc(Oc3ccc(C(F)(F)F)cc3)c2)c1)C(=O)O (stereo not drawn) [Example 155]	57
COc1ccc(C(=O)c2cc(C)cn2C/C=C/c2cccc(O[C@@H](C)C(=O)O)c2)cc1 [Example 158]	24
CC(Oc1cccc(/C=C/Cn2cccc2C(=O)Nc2ccc(OC(F)(F)F)cc2)c1)C(=O)O (stereo not drawn) [Example 179]	22
C[C@H](Oc1cccc(/C=C/Cn2cccc2C(=O)c2ccc3c(c2)CCO3)c1)C(=O)O [Example 186]	44
Cc1ccc(CC(=O)c2cccn2C/C=C/c2cccc(O[C@@H](C)C(=O)O)c2)cc1 [Example 191]	15

Same assay, conditions: Mus musculus, po, 336 h, dosage 100 mg/kg orally once a day for 2 weeks in 0.5% carboxymethyl cellulose, male db/db mice (7 to 8 weeks old), versus vehicle on last day

SMILES	inhibition in vivo at 100 mg/kg [%]
Cc1ccc(C(=O)c2cccn2C/C=C/c2cccc(C(C)(C)C(=O)O)c2)cc1 [Example 39]	65
O=C(O)COc1cccc(/C=C/Cn2cccc2C(=O)c2ccc(Cl)cc2)c1 [Example 53]	23
Cc1ccc(C(=O)c2ccn(C/C=C/c3cccc(SC(C)C(=O)O)c3)c2)cc1 (stereo not drawn) [Example 128]	27
Cc1ccc(NC(=O)c2cccn2C/C=C/c2cccc(SCC(=O)O)c2)cc1 [Example 135]	16
Cc1ccc(C(=O)c2cccn2C/C=C/c2cccc(O[C@H](C)C(=O)O)c2)cc1 [Example 139]	55
Cc1ccc(C(=O)c2cccn2C/C=C/c2cccc(O[C@@H](C)C(=O)O)c2)cc1 [Example 142]	55
CCC(Cc1cccc(/C=C/Cn2cccc2C(=O)c2ccc(C)cc2)c1)C(=O)O (stereo not drawn) [Example 165]	68
COc1ccccc1NC(=O)c1cccn1C/C=C/c1cccc(SCC(=O)O)c1 [Example 171]	20

Same assay, conditions: dosage 30 mg/kg orally once a day for 2 weeks in 0.5% carboxymethyl cellulose, male db/db mice (7 to 8 weeks old), versus vehicle on last day

SMILES	Hypoglycemic activity(%)
Cc1ccc(CC(=O)c2cccn2C/C=C/c2cccc(O[C@@H](C)C(=O)O)c2)cc1 [Example 201]	18
